According to patent US9738612B2, “Methylacryloyl benzimidazolone derivative and anti-tumour use thereof” (SHANGHAI NATURE STANDARD R&D AND BIOTECH CO., LTD, priority 2014, dated 2017):
Entries after “also recorded” stand apart in the source; their conditions may differ.

Columns and labels:
Assay type in all cases: cell-based
PC-3 = assay: Sulforhodamine B proliferation; details: SRB; for Inhibitory rate % (PC-3) / inhibition at 10 µM: 72 h; for inhibition at 10 µM: Homo sapiens, PC-3, 72 h, read-out: Inhibitory rate % (PC-3)
Protocol: (§1) At a certain density cells were seeded in 96-well plates, and adhered overnight. The medium was discarded after incubating cells with compounds to be tested for 72 h, then 100μL/well trichloroacetic acid (TCA) was added to fix cells at 4° C. for 2h. After that the fixing solution was discarded. Cells were gently washed 5 times with distilled water, dried at room temperature. Cells were stained with 4 mg/mL SRB staining solution (100 μL/well) at room temperature for 15min. The staining solution was discarded, and cells were washed five times with 1% acetic acid (HAC) and dried at room temperature. To the plate tris base buffer (10 mM) was added at 150 μL/well and placed at room temperature for 15min. The OD values were measured at 540 nm wavelength in a microplate reader. Inhibitory rate (%)=(OD valuecontrol wells−OD valuedrugs treated wells)/OD valuecontrol wells×100%.
(§2) The results were shown in Table 2, the working concentrations of MK2206 and compounds of FD series were 10 μM. As shown in this Table, PC-3 is a prostate cancer cell line purchased from Cell Resource Center of Shanghai Institutes for Biological Sciences, Chinese Academy of Sciences, A549 is a lung cancer cell line purchased from Cell Resource Center of Shanghai Institutes for Biological Sciences, Chinese Academy of Sciences, and SGC-7901 is a gastric cancer cell line purchased from Cell Resource Center of Shanghai Institutes for Biological Sciences, Chinese Academy of Sciences.

A549 = assay: Sulforhodamine B proliferation; details: SRB; for Inhibitory rate % (A549): 10 μM, 72 h; for inhibition at 10 µM: Homo sapiens, A549, 72 h, read-out: Inhibitory rate % (A549)
Protocol: as §1, §2

SGC-7901 = assay: Sulforhodamine B proliferation; details: SRB; for Inhibitory rate % (SGC-7901): 10 μM, 72 h; for inhibition at 10 µM: Homo sapiens, SGC-7901, 72 h, read-out: Inhibitory rate % (SGC-7901)
Protocol: as §1, §2

[1] = test system: Akt phosphorylation at S473 site; assay: ELISA (double antibody sandwich), Akt phosphorylation in IGF-1 stimulated A549 cells; details: for Effect on Akt phosphorylation compared with positive control: ELISA, in words; for Inhibitory rate % (Akt phosphorylation): drug 1 h, then IGF-1 10 min, p-Akt (S473) ELISA
Protocol: Establishment of ELISA screening method using a double antibody sandwich method: A549 cells (a lung cancer cell line, purchased from Chinese Academy of Sciences, Shanghai Institutes for Biological Sciences Cell Resource Center) were inoculated at certain densities in 12-well plates, and incubated at 37° C. in a carbon dioxide incubator overnight to let cells attach the plate wells. Meanwhile the Akt antibody was inoculated at a specific concentration in a highly-adsorbed microplate, and placed in a refrigerator at 4° C. The 12-well plates were washed with sterile PBS three times, then into which serum-free F12 was added, and incubated for 24 hours in a incubator. Then MK2206, Triciribine and FD series drugs were added into 12-well plates and worked for one hour, followed by adding 100 ng of IGF-1 and being stimulated for 10 minutes. The 12-well plates were washed with pre-cooled PBS three times, and 100 μl of RIPA lysis buffer was added into each well to lyse cells on ice for 20 minutes. The lysates were collected and added to the appropriate microplate (purchased from Santa Cruz biotechnology), which were shaken on ice. A p-Akt (S473) antibody (purchased Cell Signaling Technology, Inc.) was added into microplates. After shaking for a period of time, an anti-rabbit antibody (purchased from Cell Signaling Technology, Inc.) was added. The reaction was terminated with 2M sulfuric acid after TMB developed. Absorbance at 450 nm was measured on a microplate reader, and the inhibitory rate=[…], among which ODsample refers to the absorbance of the sample well, ODIGF refers the absorbance of the well with IGF only, OD—IGF refers the absorbance of the well withoutIGF.

p-Akt (S473) = assay: Western blot, p-Akt (S473) in IGF stimulated A549 cells; details: compound 1 h, IGF 10 min, FIG. 1, in words
Protocol: A549 cells were seeded at a density of 2×10^5 cells/well into 12-well plates, and adhered overnight. Then the medium was discarded and the plates were washed three times with normal saline. After that, fresh serum-free medium was added to starve cells for 24 hours, compounds to be tested were added to work for 1 h, then IGF-I was added to stimulated for 10 min, followed byadding a lysis buffer on ice to lyse for half an hour. The cell lysates were collected and centrifuged at 20000×g at 4° C. for 10min, then the supernatant was collected. Protein was quantified by MicroBCA protein quantification Assay kit, and the protein concentration was normalized. The supernatant was mixed with the 4×SDS sample buffer [200 mM Tris.Cl (pH 6.8), 400 mM DTT, 8% SDS, 0.4% bromophenol blue, 40% glycerol] and boiled for 15 min. After cooling at room temperature, aliquots were loaded on polyacrylamide gel, and electrophoresed in Tris-glycine electrophoretic buffer (25 mM Tris, 250 mM glycine, 0.1% SDS) at 80-120 V for about 2 h. Proteins were transferred from the gel to a nitrocellulose membrane by a semi-dry method. Transferring conditions: transfer buffer (39 mM glycine, 48 mM Tris base, 0.037% SDS, 20% methanol); transfer current 25 mA; transfer time 2 h. After transfer, Ponceau S staining was used to determine the transfer efficiency and the positions of protein bands on the nitrocellulose membranes. After labeling the membrane was blocked with a blocking solution containing 5% nonfat-dried milk [5% nonfat-dried milk, 20 mM Tris-HCl (pH 7.2-7.4), 150 mM NaCl, 0.1% (v/v) Tween 20] on a shaker at room temperature for 2 h. To the system were added specific primary antibodies and incubated overnight at 4° C. Then the membrane was washed with PBST solution [20 mM Tris-HCl (pH 7.2-7.4), 150 mM NaCl, 0.1% (v/v) Tween 20] at room temperature three times, 15 min/time. To the system were added Horseradish peroxidase-labeled secondary antibodies and incubated at room temperature on a shaker with gentle shaking for 2 h. After washing with PBST solution three times, the system was exposed, developed and fixed after SuperSignal West Dura Chemiluminescent Substrate (Pierce Inc, Rochford, IL) was used for color. The results were shown in FIG. 1, in which there were 12 lanes the band shade and size of which indicated the corresponding protein concentration levels. […] MK2206 was an Akt phosphorylation inhibitor developed by Merck, and was currently in phase II clinical trial, showing good therapeutic effects in a variety of tumors.

Structure (SMILES)	Inhibitory rate % (PC-3) (PC-3; 10 μM)	Inhibitory rate % (A549) (A549)	Inhibitory rate % (SGC-7901) (SGC-7901)	Effect on Akt phosphorylation compared with positive control [1]	Inhibitory rate % (Akt phosphorylation) [1]	inhibition at 10 µM (PC-3)	inhibition at 10 µM (A549)	inhibition at 10 µM (SGC-7901)	Inhibiting effect on PC-3 tumor cells (PTEN deficient) proliferation relative to other lines (PC-3; 10 μM, in words)	Effect on Akt phosphorylation level (p-Akt S473 band) (p-Akt (S473))
C=C(C)n1c(=O)n(C(C)=O)c2ccc([N+](=O)[O-])cc21 [FD2]	32.4%	3.4%	23.4%	comparable effects with that of Triciribine	51%	–	–	–	–	–
C=CC(=O)n1c(=O)n(C(=C)C)c2ccc([N+](=O)[O-])cc21 [FD6]	–	–	–	–	10%	24.2%	18.2%	30.4%	–	–
C=C(C)n1c(=O)n(C(=O)CCC)c2cc([N+](=O)[O-])ccc21 [FD12]	8.2%	3.8%	19.8%	comparable effects with that of Triciribine	48%	–	–	–	–	–
C=C(C)n1c(=O)n(C(=O)CCCCC)c2cc([N+](=O)[O-])ccc21 [FD14]	–	–	–	–	34%	9%	13.1%	25.5%	–	–
C=C(C)n1c(=O)n(C(C)=O)c2ccc([N+](=O)[O-])cc21 [FD1]	–	9.6%	56.4%	–	85%	51.1%	–	–	more significant	significantly reduce the Akt phosphorylation level; also recorded: comparable effects to MK2206
C=C(C)n1c(=O)n(C(=O)CCCCC)c2ccc([N+](=O)[O-])cc21 [FD13]	–	–	–	comparable effects with that of Triciribine	56%	–	–	–	–	–
C=C(C)n1c(=O)n(C(=O)CCCCCCC)c2ccc([N+](=O)[O-])cc21 [FD15]	–	–	–	–	42%	4.6%	33.3%	20.1%	–	–
C=C(C)C(=O)n1c(=O)n(C(=C)C)c2ccc([N+](=O)[O-])cc21 [FD8]	–	–	–	–	3%	13.4%	2.8%	28%	–	–
C=C(C)n1c(=O)n(C(=O)c2ccccc2C)c2cc([N+](=O)[O-])ccc21 [FD18]	–	–	–	–	42%	32.1%	11.5%	44.2%	–	–
C=C(C)n1c(=O)n(C(=O)CCC)c2ccc([N+](=O)[O-])cc21 [FD9]	–	1.1%	–	–	22%	26.1%	–	26.4%	–	–
C=C(C)C(=O)n1c(=O)n(C(=C)C)c2cc([N+](=O)[O-])ccc21 [FD7]	–	–	–	–	6%	22.6%	34.1%	34.1%	–	–
C=C(C)n1c(=O)n(C(=O)CC)c2cc([N+](=O)[O-])ccc21 [FD4]	–	–	–	comparable effects with that of Triciribine	50%	33.9%	7.2%	22%	–	–
C=CC(=O)n1c(=O)n(C(=C)C)c2cc([N+](=O)[O-])ccc21 [FD5]	–	–	–	–	20%	29.1%	22.3%	7.3%	–	–
NC1(c2ccc(-c3nc4ccn5c(=O)[nH]nc5c4cc3-c3ccccc3)cc2)CCC1 [MK2206, reference compound]	1.2%	61.0%	24.3%	–	92%	–	–	–	–	significantly reduce the Akt phosphorylation level; also recorded: significantly inhibited the increase of Akt phosphorylation level stimulated by IGF
C=C(C)n1c(=O)n(C(=O)c2ccccc2C)c2ccc([N+](=O)[O-])cc21 [FD17]	–	–	–	–	38%	20%	31.4%	40.5%	–	–
C=C(C)n1c(=O)n(C(=O)CCCCCCC)c2cc([N+](=O)[O-])ccc21 [FD16]	–	–	–	–	64%	7.1%	23.2%	12.4%	–	–
C=C(C)n1c(=O)n(C(=O)CCC)c2ccc([N+](=O)[O-])cc21 [FD11]	19.2%	2.4%	13.6%	–	11%	–	–	–	–	–
C=C(C)n1c(=O)n(C(=O)CCC)c2cc([N+](=O)[O-])ccc21 [FD10]	–	–	–	–	17%	13.8%	5.3%	28.1%	–	–
